Assays:
[1] = molecular target: Sigma non-opioid intracellular receptor 1 (Homo sapiens, UniProt Q99720); experiment: DRUGMATRIX: Sigma1 radioligand binding (ligand: [3H] Haloperidol); format: cell membranes, Jurkat, Membrane; conditions: Not Active = under 50% inhibition at 10 µM
[2] = molecular target: T1, 3-hydroxy-3-methylglutaryl-coenzyme A reductase (Homo sapiens, UniProt P04035); design: species or system Escherichia coli;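 also: enzyme inhibition assay of HMG-CoA reductase using radiolabeled [14C]HMG-CoA as substrate; in other assays of this panel Not Active means under 50% inhibition at 10 µM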
T1 sequence (P04035 whole entry): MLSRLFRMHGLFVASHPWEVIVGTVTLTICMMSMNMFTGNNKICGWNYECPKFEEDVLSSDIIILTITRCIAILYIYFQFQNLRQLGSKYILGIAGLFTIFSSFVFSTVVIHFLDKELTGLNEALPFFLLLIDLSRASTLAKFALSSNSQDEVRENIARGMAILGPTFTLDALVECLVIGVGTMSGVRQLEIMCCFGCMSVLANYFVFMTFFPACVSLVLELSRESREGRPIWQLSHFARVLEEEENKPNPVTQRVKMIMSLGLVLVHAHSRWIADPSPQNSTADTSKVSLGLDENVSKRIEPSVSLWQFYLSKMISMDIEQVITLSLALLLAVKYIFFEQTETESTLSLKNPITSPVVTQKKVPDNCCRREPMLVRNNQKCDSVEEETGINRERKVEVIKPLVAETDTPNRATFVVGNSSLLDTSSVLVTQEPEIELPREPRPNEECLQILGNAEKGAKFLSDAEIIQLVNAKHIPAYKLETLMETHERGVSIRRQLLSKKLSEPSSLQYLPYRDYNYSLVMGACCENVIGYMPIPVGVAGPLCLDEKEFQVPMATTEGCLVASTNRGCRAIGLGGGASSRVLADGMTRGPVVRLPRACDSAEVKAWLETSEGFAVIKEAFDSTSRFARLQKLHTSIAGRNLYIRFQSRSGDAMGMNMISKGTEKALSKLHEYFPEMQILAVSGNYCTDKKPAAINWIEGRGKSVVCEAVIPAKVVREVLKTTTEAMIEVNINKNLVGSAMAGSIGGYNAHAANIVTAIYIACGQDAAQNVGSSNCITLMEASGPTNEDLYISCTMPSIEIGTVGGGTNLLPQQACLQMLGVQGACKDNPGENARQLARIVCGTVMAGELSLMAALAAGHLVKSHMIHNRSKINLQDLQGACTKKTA

[3] = molecular target: T2, Muscarinic acetylcholine receptor M2 (Homo sapiens, UniProt P08172); format: cell membranes, CHO-K1, Membrane; also: in other assays of this panel Not Active means under 50% inhibition at 10 µM
T2 sequence (P08172 whole entry): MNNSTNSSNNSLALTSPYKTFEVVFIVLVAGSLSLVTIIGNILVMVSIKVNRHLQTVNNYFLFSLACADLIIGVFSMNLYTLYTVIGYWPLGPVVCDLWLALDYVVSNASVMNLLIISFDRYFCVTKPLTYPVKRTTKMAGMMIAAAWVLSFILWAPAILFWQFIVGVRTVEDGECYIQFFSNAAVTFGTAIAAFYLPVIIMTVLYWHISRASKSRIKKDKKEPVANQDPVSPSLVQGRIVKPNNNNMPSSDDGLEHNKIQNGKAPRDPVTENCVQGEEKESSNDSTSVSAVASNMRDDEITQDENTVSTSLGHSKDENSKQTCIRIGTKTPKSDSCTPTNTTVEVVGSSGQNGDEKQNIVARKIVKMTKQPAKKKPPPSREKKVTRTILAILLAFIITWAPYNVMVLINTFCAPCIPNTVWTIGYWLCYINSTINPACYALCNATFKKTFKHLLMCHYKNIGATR

[4] = molecular target: T3, Amine oxidase [flavin-containing] A (Homo sapiens, UniProt P21397); experiment: DRUGMATRIX: Monoamine Oxidase MAO-A enzyme inhibition (substrate: Kynuramine); design: species or system BTI-TN-5B1-4; conditions: bti-tn-5b1-4; Not Active = under 50% inhibition at 10 µM
T3 sequence (P21397 whole entry): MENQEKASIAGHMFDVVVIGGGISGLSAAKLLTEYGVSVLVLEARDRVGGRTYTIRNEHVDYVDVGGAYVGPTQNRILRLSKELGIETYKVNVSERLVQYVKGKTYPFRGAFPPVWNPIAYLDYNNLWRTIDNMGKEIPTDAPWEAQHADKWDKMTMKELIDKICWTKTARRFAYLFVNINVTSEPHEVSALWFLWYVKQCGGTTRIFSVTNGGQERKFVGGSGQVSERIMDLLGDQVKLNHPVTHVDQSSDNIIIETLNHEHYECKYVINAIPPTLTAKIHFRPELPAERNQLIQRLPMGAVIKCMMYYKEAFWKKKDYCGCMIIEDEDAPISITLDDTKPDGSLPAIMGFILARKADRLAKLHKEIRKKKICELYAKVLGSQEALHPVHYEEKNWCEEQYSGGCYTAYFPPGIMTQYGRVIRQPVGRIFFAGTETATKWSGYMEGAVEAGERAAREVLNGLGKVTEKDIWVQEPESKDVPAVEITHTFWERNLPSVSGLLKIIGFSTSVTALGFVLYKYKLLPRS

[5] = DRUGMATRIX: Nicotinic Acetylcholine radioligand binding (ligand: [125I] Epibatidine); format: cell membranes, Membrane; conditions: imr-32, Not Active = under 50% inhibition at 10 µM
[6] = DRUGMATRIX: Glutamate, NMDA, Phencyclidine radioligand binding (ligand: [3H] TCP); format: cell membranes, Rattus norvegicus, Wistar, Cerebral cortex, Membrane; conditions: Not Active = under 50% inhibition at 10 µM

Sequence of Sigma non-opioid intracellular receptor 1 (Q99720 whole entry): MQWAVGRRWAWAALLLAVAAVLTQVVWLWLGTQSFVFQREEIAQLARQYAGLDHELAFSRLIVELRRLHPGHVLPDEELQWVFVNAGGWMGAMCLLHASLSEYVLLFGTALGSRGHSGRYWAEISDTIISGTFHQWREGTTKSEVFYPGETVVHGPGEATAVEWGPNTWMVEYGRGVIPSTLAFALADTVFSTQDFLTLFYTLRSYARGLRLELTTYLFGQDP

SMILES | IC50 ([1]; jurkat) | IC50 [2] | IC50 ([3]; cho-k1) | IC50 [4] | IC50 [5] | Ki [5] | IC50 [6] | Ki [6] | IC50 ([5]; read-out: IC50) [µM] | Ki ([5]; read-out: Ki) [µM] | IC50 ([1]; read-out: IC50) [µM] | Ki ([1]; read-out: Ki) [µM] | IC50 ([3]; read-out: IC50) [µM] | Ki ([3]; read-out: Ki) [µM]
O=C1c2ccccc2C(=O)C1c1ccccc1 [PHENINDIONE] | Not Active | Not Active | Not Active | Not Active | Not Active | Not Active | Not Active | Not Active | – | – | – | – | – | –
Nc1ccc(C(=O)O)c(O)c1 [AMINOSALICYLIC ACID] | Not Active | Not Active | Not Active | Not Active | Not Active | Not Active | Not Active | Not Active | – | – | – | – | – | –
OC[C@H]1O[C@@H]2O[C@H]3[C@H](O)[C@@H](O)[C@@H](O[C@H]4[C@H](O)[C@@H](O)[C@@H](O[C@H]5[C@H](O)[C@@H](O)[C@@H](O[C@H]6[C@H](O)[C@@H](O)[C@@H](O[C@H]7[C@H](O)[C@@H](O)[C@@H](O[C@H]1[C@H](O)[C@H]2O)O[C@@H]7CO)O[C@@H]6CO)O[C@@H]5CO)O[C@@H]4CO)O[C@@H]3CO [ALFADEX] | Not Active | Not Active | Not Active | Not Active | Not Active | Not Active | Not Active | Not Active | – | – | – | – | – | –
COC(=O)C[C@](O)(CCC(C)(C)O)C(=O)O[C@@H]1C(OC)=C[C@]23CCCN2CCc2cc4c(cc2[C@H]13)OCO4 [HARRINGTONINE] | Not Active | Not Active | Not Active | Not Active | Not Active | Not Active | Not Active | Not Active | – | – | – | – | – | –
O=C1CN(/N=C/c2ccc([N+](=O)[O-])o2)C(=O)N1 [NITROFURANTOIN] | Not Active | Not Active | Not Active | Not Active | Not Active | Not Active | Not Active | Not Active | – | – | – | – | – | –
C[N+](C)(C)CCOC(N)=O.[Cl-] [CARBACHOL] | Not Active | Not Active | Not Active | Not Active | – | – | Not Active | Not Active | 1 | 0.334 | – | – | – | –
O=C(NCCN1CCOCC1)c1ccc(Cl)cc1 [MOCLOBEMIDE] | Not Active | Not Active | Not Active | Not Active | Not Active | Not Active | Not Active | Not Active | – | – | – | – | – | –
CC12CCC(CC1)C(C)(C)O2 [EUCALYPTOL] | Not Active | Not Active | Not Active | Not Active | Not Active | Not Active | Not Active | Not Active | – | – | – | – | – | –
CC(N)Cc1c[nH]c2ccc(OCc3cccs3)cc12 (configuration not stated) [BW-723C86] | Not Active | Not Active | Not Active | Not Active | Not Active | Not Active | Not Active | Not Active | – | – | – | – | – | –
CCN1C[C@]2(COC)[C@H](O)C[C@H](OC)[C@@]34[C@@H]5C[C@@]6(O)[C@H](OC(=O)c7ccccc7)[C@@H]5[C@@](OC(C)=O)([C@@H]([C@H](OC)[C@H]23)[C@@H]14)[C@@H](O)[C@@H]6OC [ACONITINE] | Not Active | Not Active | Not Active | Not Active | Not Active | Not Active | Not Active | Not Active | – | – | – | – | – | –
OC[C@H]1OC2C3[C@@H](CO)OC(O[C@H]4[C@H](O)[C@@H](O)[C@@H](O[C@H]5[C@H](O)[C@@H](O)[C@@H](O[C@H]6[C@H](O)[C@@H](O)[C@@H](O[C@H]7[C@H](O)[C@@H](O)[C@@H](O[C@H]8[C@H](O)[C@@H](O)[C@@H](O[C@H]9[C@H](O)[C@@H](O)C(OC1[C@H](O)[C@H]2O)O[C@@H]9CO)O[C@@H]8CO)O[C@@H]7CO)O[C@@H]6CO)O[C@@H]5CO)O[C@@H]4CO)[C@H](O)[C@H]3O | Not Active | Not Active | Not Active | Not Active | Not Active | Not Active | Not Active | Not Active | – | – | – | – | – | –
CN(CCOc1ccc(C[C@H](Nc2ccccc2C(=O)c2ccccc2)C(=O)O)cc1)c1ccccn1 | Not Active | Not Active | Not Active | Not Active | Not Active | Not Active | Not Active | Not Active | – | – | – | – | – | –
CCN1CCN(c2cc3c(cc2F)c(=O)c(C(=O)O)cn3C2CC2)CC1 [ENROFLOXACIN] | Not Active | Not Active | Not Active | Not Active | Not Active | Not Active | Not Active | Not Active | – | – | – | – | – | –
NS(=O)(=O)c1cc(C(=O)O)c(NCc2ccco2)cc1Cl [FUROSEMIDE] | Not Active | Not Active | Not Active | Not Active | Not Active | Not Active | Not Active | Not Active | – | – | – | – | – | –
NC(=O)NC(=O)Cc1ccccc1 [PHENACEMIDE] | Not Active | Not Active | Not Active | Not Active | Not Active | Not Active | Not Active | Not Active | – | – | – | – | – | –
Cc1cc(C(C)(C)C)c(O)c(C)c1CC1=NCCN1 [OXYMETAZOLINE] | Not Active | Not Active | Not Active | Not Active | Not Active | Not Active | Not Active | Not Active | – | – | – | – | – | –
CC(CN1c2ccccc2Sc2ccccc21)N(C)C (configuration not stated) [PROMETHAZINE] | – | Not Active | – | Not Active | Not Active | Not Active | Not Active | Not Active | – | – | 0.287 | 0.12 | 0.035 | 0.012
NC(N)=Nc1nc(CSCCC(N)=NS(N)(=O)=O)cs1 [FAMOTIDINE] | Not Active | Not Active | Not Active | Not Active | Not Active | Not Active | Not Active | Not Active | – | – | – | – | – | –
C[C@]12CC[C@@H](O)C[C@@H]1CC[C@@H]1[C@@H]2CC[C@]2(C)C(=O)CC[C@@H]12 [ANDROSTERONE] | Not Active | Not Active | Not Active | Not Active | Not Active | Not Active | Not Active | Not Active | – | – | – | – | – | –
ClC1=C(Cl)[C@]2(Cl)[C@@H]3[C@@H]4C[C@@H]([C@H]5O[C@@H]45)[C@@H]3[C@@]1(Cl)C2(Cl)Cl [DIELDRIN] | Not Active | Not Active | Not Active | Not Active | Not Active | Not Active | Not Active | Not Active | – | – | – | – | – | –
